From US7659244B2, “Rapamycin peptides conjugates: synthesis and uses thereof” (Quest Pharmatech, Inc., priority 2004, dated 2010)
Where two headings read alike, the source gives them in different places.

Columns and labels:
[1] = read-out: Inhibition of H^3 Thymidine uptake (IC50 in nM), SK-N-SH cells, 96 hours incubation
[2] = read-out: Inhibition of H^3 Thymidine uptake (IC50 in nM), SKMEL-2 cells, 96 hours incubation
[3] = read-out: Inhibition of H^3 Thymidine uptake (IC50 in nM), A431 cells, 96 hours incubation
[4] = read-out: Inhibition of H^3 Thymidine uptake (IC50 in nM), Lncap cells, 96 hours incubation
[5] = read-out: Inhibition of H^3 Thymidine uptake (IC50 in nM), MCF-7 cells, 96 hours incubation
[6] = read-out: Inhibition of H^3 Thymidine uptake (IC50 in nM), D341 cells, 96 hours incubation
[7] = read-out: Inhibition of H^3 Thymidine uptake (IC50 in nM), LS174T cells, 96 hours incubation
[8] = read-out: Inhibition of H^3 Thymidine uptake (IC50 in nM), SKOV-3 cells, 96 hours incubation
[9] = read-out: Inhibition of H^3 Thymidine uptake (IC50 in nM), OVCAR-3 cells, 96 hours incubation

Structure (SMILES) | IC50 (SK-N-SH; 96 h) [nM] | IC50 (SKMEL-2; 96 h) [nM] | IC50 (A431; 96 h) [nM] | IC50 (Lncap; 96 h) [nM] | IC50 (MCF-7; 96 h) [nM] | IC50 (D341; 96 h) [nM] | IC50 (LS174T; 96 h) [nM] | IC50 (SKOV-3; 96 h) [nM] | IC50 (OVCAR-3; 96 h) [nM] | IC50 (SK-N-SH; [1]) [nM] | IC50 (SKMEL-2; [2]) [nM] | IC50 (A431; [3]) [nM] | IC50 (Lncap; [4]) [nM] | IC50 (MCF-7; [5]) [nM] | IC50 (D341; [6]) [nM] | IC50 (LS174T; [7]) [nM] | IC50 (SKOV-3; [8]) [nM] | IC50 (OVCAR-3; [9]) [nM]
CC[C@H](C)[C@H](NC(=O)O[C@@H]1CC[C@@H](C[C@@H](C)[C@@H]2CC(=O)[C@H](C)/C=C(\C)[C@@H](O)[C@@H](OC)C(=O)[C@H](C)C[C@H](C)/C=C/C=C/C=C(\C)[C@@H](OC)C[C@@H]3CC[C@@H](C)[C@@](O)(O3)C(=O)C(=O)N3CCCC[C@H]3C(=O)O2)C[C@H]1OC)C(=O)N[C@@H](CO)Cc1ccccc1 [Compound 7a, Rapamycin-42-O-ester-(NH-L-Ile-D-Phe-CH2OH)] | 86.9 | 78.1 | 608 | 154 | 29.6 | 138 | 626 | 80 | 416 | – | – | – | – | – | – | – | – | –
CC[C@H](C)[C@H](NC(=O)O[C@@H]1CC[C@@H](C[C@@H](C)[C@@H]2CC(=O)[C@H](C)/C=C(\C)[C@@H](O)[C@@H](OC)C(=O)[C@H](C)C[C@H](C)/C=C/C=C/C=C(\C)[C@@H](OC)C[C@@H]3CC[C@@H](C)[C@@](O)(O3)C(=O)C(=O)N3CCCC[C@H]3C(=O)O2)C[C@H]1OC)C(=O)N[C@H](CO)Cc1ccccc1 [Compound 7b, Rapamycin-42-O-ester-(NH-L-Ile-S-Phe-CH2OH)] | 144 | 326 | 1840 | 309 | 53.3 | 182 | 1480 | 136 | 424 | – | – | – | – | – | – | – | – | –
CC[C@H](C)[C@H](NC(=O)[C@H](CC(C)C)NC(=O)O[C@@H]1CC[C@@H](C[C@@H](C)[C@@H]2CC(=O)[C@H](C)/C=C(\C)[C@@H](O)[C@@H](OC)C(=O)[C@H](C)C[C@H](C)/C=C/C=C/C=C(\C)[C@@H](OC)C[C@@H]3CC[C@@H](C)[C@@](O)(O3)C(=O)C(=O)N3CCCC[C@H]3C(=O)O2)C[C@H]1OC)C(=O)N[C@@H](CO)Cc1ccccc1 [Compound 7c, Rapamycin-42-O-ester-(NH-L-Leu-L-Ile-D-Phe-CH2OH)] | 111 | 87.4 | 286 | 212 | 32.3 | 114 | 1700 | 72.1 | 260 | – | – | – | – | – | – | – | – | –
CC[C@H](C)[C@H](NC(=O)[C@H](CC(C)C)NC(=O)[C@H](C)NC(=O)O[C@@H]1CC[C@@H](C[C@@H](C)[C@@H]2CC(=O)[C@H](C)/C=C(\C)[C@@H](O)[C@@H](OC)C(=O)[C@H](C)C[C@H](C)/C=C/C=C/C=C(\C)[C@@H](OC)C[C@@H]3CC[C@@H](C)[C@@](O)(O3)C(=O)C(=O)N3CCCC[C@H]3C(=O)O2)C[C@H]1OC)C(=O)N[C@@H](CO)Cc1ccccc1 [Compound 7e, Rapamycin-42-O-ester-(NH-L-Ala-L-Leu-L-Ile-D-Phe-CH2OH)] | 90 | 155 | 490 | 191 | 66.9 | 82.8 | 146 | 76.6 | 503 | – | – | – | – | – | – | – | – | –
CC[C@H](C)[C@H](NC(=O)[C@H](CC(C)C)NC(=O)[C@H](C)NC(=O)[C@H](Cc1cn(C(c2ccccc2)(c2ccccc2)c2ccccc2)cn1)NC(=O)O[C@@H]1CC[C@@H](C[C@@H](C)[C@@H]2CC(=O)[C@H](C)/C=C(\C)[C@@H](O)[C@@H](OC)C(=O)[C@H](C)C[C@H](C)/C=C/C=C/C=C(\C)[C@@H](OC)C[C@@H]3CC[C@@H](C)[C@@](O)(O3)C(=O)C(=O)N3CCCC[C@H]3C(=O)O2)C[C@H]1OC)C(=O)N[C@@H](CO)Cc1ccccc1 [Compound 7h] | 223 | 416 | 2370 | 374 | 85.5 | 405 | 777 | 155 | 375 | – | – | – | – | – | – | – | – | –
CO[C@H]1C[C@@H]2CC[C@@H](C)[C@@](O)(O2)C(=O)C(=O)N2CCCC[C@H]2C(=O)O[C@H]([C@H](C)C[C@@H]2CC[C@@H](OC(=O)N[C@@H](CO)[C@@H](O)c3ccccc3)[C@H](OC)C2)CC(=O)[C@H](C)/C=C(\C)[C@@H](O)[C@@H](OC)C(=O)[C@H](C)C[C@H](C)/C=C/C=C/C=C/1C [Compound 7l, Rapamycin-42-O-ester-(1S,2S)-(+)-2-amino-1-phenyl-1,3-propandiol] | – | – | – | – | – | – | – | – | – | 15.6 | 29.1 | 217 | 64.6 | 6.35 | 27.6 | 23500 | 17.1 | 113
CCC(C)C(CO)NC(=O)O[C@@H]1CC[C@@H](C[C@@H](C)[C@@H]2CC(=O)[C@H](C)/C=C(\C)[C@@H](O)[C@@H](OC)C(=O)[C@H](C)C[C@H](C)/C=C/C=C/C=C(\C)[C@@H](OC)C[C@@H]3CC[C@@H](C)[C@@](O)(O3)C(=O)C(=O)N3CCCC[C@H]3C(=O)O2)C[C@H]1OC (stereo partly drawn) [Compound 7m, Rapamycin-42-O-ester-2-amino-3-methyl-1-pentanol] | – | – | – | – | – | – | – | – | – | 56.7 | 147 | 626 | 136 | 31.3 | 86.8 | 664 | 69.1 | 488
CO[C@H]1C[C@@H]2CC[C@@H](C)[C@@](O)(O2)C(=O)C(=O)N2CCCC[C@H]2C(=O)O[C@H]([C@H](C)C[C@@H]2CC[C@@H](OC(=O)NCC(O)CO)[C@H](OC)C2)CC(=O)[C@H](C)/C=C(\C)[C@@H](O)[C@@H](OC)C(=O)[C@H](C)C[C@H](C)/C=C/C=C/C=C/1C (stereo partly drawn) [Compound 7n, Rapamycin-42-O-ester-3-amino-1,2-propanediol] | – | – | – | – | – | – | – | – | – | 7.27 | 11.7 | 314 | 42.7 | 2.53 | 14.7 | 55100 | 7.96 | 71.9
CO[C@H]1C[C@@H]2CC[C@@H](C)[C@@](O)(O2)C(=O)C(=O)N2CCCC[C@H]2C(=O)O[C@H]([C@H](C)C[C@@H]2CC[C@@H](OC(=O)NC(CO)CO)[C@H](OC)C2)CC(=O)[C@H](C)/C=C(\C)[C@@H](O)[C@@H](OC)C(=O)[C@H](C)C[C@H](C)/C=C/C=C/C=C/1C [Compound 7o, Rapamycin-42-O-ester-2-amino-1,3-propanediol] | – | – | – | – | – | – | – | – | – | 5.84 | 48.3 | 150 | 39.6 | 2.58 | 36.2 | 1030 | 27.4 | 80.7
CO[C@H]1C[C@@H]2CC[C@@H](C)[C@@](O)(O2)C(=O)C(=O)N2CCCC[C@H]2C(=O)O[C@H]([C@H](C)C[C@@H]2CC[C@@H](OC(=O)NC(C)(CO)CO)[C@H](OC)C2)CC(=O)[C@H](C)/C=C(\C)[C@@H](O)[C@@H](OC)C(=O)[C@H](C)C[C@H](C)/C=C/C=C/C=C/1C [Compound 7p, Rapamycin-42-O-ester-2-amino-2-methyl-1,3-propanediol] | – | – | – | – | – | – | – | – | – | 7.19 | 17.7 | 254 | 7.12 | 1.17 | 10.2 | 2310 | 8.8 | 79.3
CO[C@H]1C[C@@H]2CC[C@@H](C)[C@@](O)(O2)C(=O)C(=O)N2CCCC[C@H]2C(=O)O[C@H]([C@H](C)C[C@@H]2CC[C@@H](OC(=O)N[C@@H](CO)[C@H](C)O)[C@H](OC)C2)CC(=O)[C@H](C)/C=C(\C)[C@@H](O)[C@@H](OC)C(=O)[C@H](C)C[C@H](C)/C=C/C=C/C=C/1C [Compound 7q, Rapamycin-42-O-ester-(2S,3S)-2-amino-1,3-butanediol] | – | – | – | – | – | – | – | – | – | 5.25 | 9.15 | 313 | 17.4 | 1.29 | 25.2 | 1630 | 6.35 | 56.5
CO[C@H]1C[C@@H]2CC[C@@H](C)[C@@](O)(O2)C(=O)C(=O)N2CCCC[C@H]2C(=O)O[C@H]([C@H](C)C[C@@H]2CC[C@@H](OC(=O)N[C@H](CO)[C@@H](C)O)[C@H](OC)C2)CC(=O)[C@H](C)/C=C(\C)[C@@H](O)[C@@H](OC)C(=O)[C@H](C)C[C@H](C)/C=C/C=C/C=C/1C [Compound 7r, Rapamycin-42-O-ester-(2R,3R)-2-amino-1,3-butanediol] | – | – | – | – | – | – | – | – | – | 4.84 | 8.32 | 191 | 21.8 | 1.86 | 5.5 | 1410 | 6.44 | 47.2
COC1CC2CCC(C)C(O)(O2)C(=O)C(=O)N2CCCCC2C(=O)OC(C(C)CC2CCC(OC(=O)NC(CO)CC(C)C)C(OC)C2)CC(=O)C(C)C=C(C)C(O)C(OC)C(=O)C(C)CC(C)C=CC=CC=C1C [Compound 7t, Rapamycin-42-O-ester-(S)-(+)-2-amino-4-methyl pentanol] | – | – | – | – | – | – | – | – | – | 99.3 | 73.2 | 278 | 202 | 53.3 | 61.2 | 24000 | 64.1 | 367
CO[C@H]1C[C@@H]2CC[C@@H](C)[C@@](O)(O2)C(=O)C(=O)N2CCCC[C@H]2C(=O)O[C@H]([C@H](C)C[C@@H]2CC[C@@H](OC(=O)NC(CO)(CO)CO)[C@H](OC)C2)CC(=O)[C@H](C)/C=C(\C)[C@@H](O)[C@@H](OC)C(=O)[C@H](C)C[C@H](C)/C=C/C=C/C=C/1C [Compound 7u, Rapamycin-42-O-ester-Tris(hydroxymethyl)amino methane] | – | – | – | – | – | – | – | – | – | 6.4 | 6.15 | 282 | 14 | 1.54 | 20.8 | 1590 | 8.08 | 56.6
